# Test results from patent publication US20090281065A1, “Use of Lysophospholipids to Treat Inflammation” (priority 2008, published 2009).
# Marks after values point to notes of the source that are not given here.
# Experiments:
# TNBS induced colitis [1] = test system: TNBS induced colitis
# IL6 = assay: Plasma cytokine ELISA in TNBS colitis rats: IL6; details: Example 3; oral day 4-10: PB6 1.5 108 CFU/Kg thrice daily; Lysophospholipid 10.3 mg/Kg 2 times daily; combination 25.75 mg/ml 2 times daily; Mesacol 250 mg/Kg once daily
# IL10 = assay: Plasma cytokine ELISA in TNBS colitis rats: IL10
# TNF-α = assay: Plasma cytokine ELISA in TNBS colitis rats: TNF-α
# IL1-β = assay: Plasma cytokine ELISA in TNBS colitis rats: IL1-β
# IFN-γ = assay: Plasma cytokine ELISA in TNBS colitis rats: IFN-γ
# TGF-β = assay: Plasma cytokine ELISA in TNBS colitis rats: TGF-β
# TNBS induced colitis [2] = assay: TNBS induced colitis in rats: colon wet weight and macroscopic colon score; details: for Colon Score / Colon wet weight (g): day 11
# [3] = set-up: species or system Cobb 400 broiler chickens; details: in vivo
# [4] = set-up: species or system Cobb 400 broiler chickens; details: in vivo; remark: listed apart in the source
# HepG2/NFκB-Luc cells = assay: Cytotoxicity test (AlamarBlue reduction rate); assay type: cell-based; details: 2 mg/ml (~3636 μM) LPC content; 4 hours; FIG. 8
# Procedure: An overnight culture of HepG2/NFκB-Luc cells were trypsinized and transferred to 96-well microtiter plate, with 1.5×10^4 cells/well. The 96-well microtiter plates were incubated for 24 hours at 37° C. with 5% CO2. Then different concentrations of LPC samples were added into plate wells together with AlamarBlue. The cells were incubated for 4 hours at 37° C. with 5% CO2 before the OD570 and OD600 readings were measured. Culture medium with no LPC added was used as a control. The cytotoxicity was reflected by the amount of AlamarBlue being reduced (reduction rate (RR)) as determined by the following formula:
# RR %={[(εoxλ2)(Aλ1)−(εoxλ1)(Aλ2)]}/{[(εredλ1)(A′λ2)−(εredλ2)(A′λ1)]}×100%
# where, εredλ1=155677 (absorption coefficient of reduced AlamarBlue at 570 nm) • Εredλ2=14652 (absorption coefficient of reduced AlamarBlue at 600 nm) • εoxλ1=80586 (absorption coefficient of oxidized AlamarBlue at 570 nm) • εoxλ2=117216 (absorption coefficient of oxidized AlamarBlue at 600 nm) • A′λ1=OD570 of the blank control (wells with AlamarBlue but no cells) • A′λ2=OD600 of the blank control (wells with AlamarBlue but no cells).
# NFκB = assay: Inflammation test without TNF-α (NFκB luciferase reporter); assay type: cell-based; details: FIG. 9
# Procedure: An overnight culture of HepG2/NFκB-Luc cells were trypsinized and transferred to 96-well microtiter plate, with 1.5×10^4 cells/well. […] After incubation, the supernatant was removed, and 100 μl of luciferase substrate was added into each well and incubated for 5 minutes. Then 80 μl of the solution was transferred to a clean microtiter plate to determine the florescence unit by Steady-Glo® Luciferase Assay System. The LPC-treated cells without substrate added were used as control.
# [5] = Example 3, oral day 4-10: PB6 1.5 108 CFU/Kg thrice daily, Lysophospholipid 10.3 mg/Kg 2 times daily, combination 25.75 mg/ml 2 times daily, Mesacol 250 mg/Kg once daily
# [6] = Example 4, Lysoprin + Marinol + lutein at 21.5 mg/kg orally thrice daily day 4-10, Mesacol 250 mg/Kg orally once daily
molecule,measurement,setting,value
"Nc1ccc(O)c(C(=O)O)c1 [Mesacol, 5-aminosalicylic acid]",% Body weight gain/loss Day 1-4,"TNBS induced colitis [1]; Example 3, TNBS day 1, Day 1-4 is prior to treatment (treatment from day 4)",−6.6%
same,% Body weight gain/loss Day 4-10,"TNBS induced colitis [1]; Example 3, oral day 4-10: PB6 1.5 10^8 CFU/Kg thrice daily, Lysophospholipids 10.3 mg/Kg 2 times daily, combination 25.75 mg/ml 2 times daily, Mesacol 250 mg/Kg once daily",−1.87%
same,mortalities due to severe weight loss,"TNBS induced colitis [1]; Example 4, Mesacol 250 mg/kg group, n=6",two
same,IL6 level in Plasma Day 11,IL6,127.4^a picogram/ml
same,IL10 level in Plasma Day 7,IL10; [5],217.9ab picogram/ml
same,IL10 level in Plasma Day 11,IL10; [5],444c picogram/ml
same,IL10 level in Plasma Day 7,IL10; [6],231^ab picogram/ml
same,IL10 level in Plasma Day 11,IL10; [6],454^d picogram/ml
same,TNF-α level in Plasma Day 7,TNF-α; [5],22.77^a picogram/ml
same,TNF-α level in Plasma Day 11,TNF-α; [5],30.27^b picogram/ml
same,TNF-α level in Plasma Day 7,TNF-α; [6],29±^ab picogram/ml
same,TNF-α level in Plasma Day 11,TNF-α; [6],28±^a picogram/ml
same,IL1-β level in Plasma Day 7,IL1-β; [5],881.52^b picogram/ml
same,IL1-β level in Plasma Day 11,IL1-β; [5],848.33^bc picogram/ml
same,IL1-β level in Plasma Day 7,IL1-β; [6],567±^a picogram/ml
same,IL1-β level in Plasma Day 11,IL1-β; [6],685±^bc picogram/ml
same,IFN-γ level in Plasma Day 7,IFN-γ; [5],20.8^a picogram/ml
same,IFN-γ level in Plasma Day 11,IFN-γ; [5],40.23^c picogram/ml
same,IFN-γ level in Plasma Day 7,IFN-γ; [6],37^b picogram/ml
same,IFN-γ level in Plasma Day 11,IFN-γ; [6],40^c picogram/ml
same,TGF-β level in Plasma Day 7,TGF-β; [5],17535 ± 2261a picogram/ml
same,TGF-β level in Plasma Day 11,TGF-β; [5],32542 ± 5294b picogram/ml
same,TGF level in Plasma Day 7,TGF-β; [6],37^b picogram/ml
same,TGF level in Plasma Day 11,TGF-β; [6],40^c picogram/ml
same,macroscopic examination of the colonic tissue,"TNBS induced colitis [2]; Example 3, PB6 (Group 4), Lysophospholipid 10.3 mg/kg (Group 5), combination 21.63 mg/kg (Group 6), Mesacol (Group 7)",no lesions with any visible inflammation or injury in the colonic tissue
same,Colon Score,"TNBS induced colitis [2]; Example 3, macroscopic grade 0-5, oral day 4-10: PB6 1.5 108 CFU/Kg thrice daily, Lysophospholipids 10.3 mg/Kg 2 times daily, combination 25.75 mg/ml 2 times daily, Mesacol 250 mg/Kg once daily",0.833^a
same,Colon wet weight (g),"TNBS induced colitis [2]; Example 3, oral day 4-10: PB6 1.5 108 CFU/Kg thrice daily, Lysophospholipids 10.3 mg/Kg 2 times daily, combination 25.75 mg/ml 2 times daily, Mesacol 250 mg/Kg once daily",0.669^a g
same,Colon wet weight (g),"TNBS induced colitis [2]; Example 4, Lysoprin + Marinol + lutein at 21.5 mg/kg orally thrice daily day 4-10, Mesacol 250 mg/Kg orally once daily day 4-10",0.336^ab g
same,Colon Score,"TNBS induced colitis [2]; Example 4, grade 0-5, Lysoprin + Marinol + lutein at 21.5 mg/kg orally thrice daily day 4-10, Mesacol 250 mg/Kg orally once daily day 4-10",1.000^a
same,macroscopic examination of the colonic tissue,"TNBS induced colitis [2]; Example 4, low dose combination at 21.63 mg/kg (Group 4), Mesacol (Group 6, n=4/6)",signs of amelioration with reduced localized ulceration
"CC1=C[C@H](O)CC(C)(C)[C@H]1/C=C/C(C)=C/C=C/C(C)=C/C=C/C=C(C)/C=C/C=C(C)/C=C/C1=C(C)C[C@@H](O)CC1(C)C [Treatment 2, lutein]","performance (feed intake, weight gain, FCR)",[3],comparable to that of the control group
"CCC(=O)[O-].CCC(=O)[O-].CCC(=O)[O-].[Cr+3] [Treatment 3, chromium propionate]",relative weight of the thymus,[4],higher
same,FCR,[3],A similar trend
same,weight gain,[3],A similar trend
lysophosphatidylcholine [pure LPC],cytotoxicity (AlamarBlue reduction rate),HepG2/NFκB-Luc cells,Certain inhibition
same,"inflammation activity (luciferase activity), without TNF-α, highest concentration","NFκB; 50 μM of LPC, compared to the mock treatment",no statistical difference
same,"inflammation activity (luciferase activity), without TNF-α","NFκB; 5, 15 and 50 μM LPC content, 6 hours",inflammatory effect at all the three concentrations tested
